Assay results reported in patent US20090274739A1, “METHODS AND COMPOSITIONS FOR TREATING NEOINTIMAL HYPERPLASIA” (THE TRUSTEES OF COLUMBIA UNIVERSITY IN THE CITY OF NEW YORK, priority 2006, published 2009).
“Also recorded” adds a separate entry of the source.

Legend:
[1] = tested on: primary murine aortic vascular smooth muscle cells (VSMC); test: VSMC proliferation assay (Coulter counter / MTS-based); format: cell-based, mouse
Procedure: The methods used in the above experiments were as follows: Cell Culture and VSMC Proliferation Assays. Primary VSMC were isolated from aortic explants of wildtype, ob/ob, or db/db mice in the method of Roque et al. 30. VSMC were routinely cultured in Dulbecco's Modified Eagle's Medium (DMEM) containing either 4500 or 1250 mg/L glucose supplemented with 20% FBS at 37° C. in a 5% CO2 incubator. […] Cells were plated at 200,000 cells/ well of a 6 well dish and subsequently serum starved for 72 hr in DMEM media supplemented with 0.1 % FBS. Leptin dissolved in PBS was added directly to serum-free media at concentrations of 1, 10, or 100 ng/ml with […] LY294002 or U0126, and cells were grown for another 72 hr before harvesting. VSMC proliferation was measured by counting samples using a Coulter counter or using the Cell Titre 96 Aqueous One Solution Cell Proliferation Assay kit (Promega). Cell viability was assessed by Trypan Blue staining.
Proliferation of VSMCs: VSMC proliferation was measured by counting triplicate samples using a Coulter counter or using the CellTitier 96 Aqueous One Solution Cell Proliferation Assay (Promega, Madison, Wis.) kit per manufacturer's instructions. Cell viability was assessed via staining with Trypan Blue.
Murine VSMCs (2×10^4 cells/well) were incubated in a 6-well tissue culture plate for 72 hours in DMEM containing 0.1% FBS with or without insulin (10 or 100 nmol/L) and with 0, 1, 10, or 100 nmol/L rapamycin. Triplicate samples were counted using a Coulter counter and were normalized as percentage of the control group. Cell viability was checked via Trypan blue staining.
Murine VSMCs, seeded 2×10^4 cells/well in a 6-well plate, were starved for 72 hrs in DMEM with 0.1% FBS. Rapamycin, leptin, or insulin in different concentrations indicated in the figure were incubated with VSMCs in DMEM with 0.1% of FBS for 72 hrs. Triplicate samples were counted via a Coulter counter. Cell viability was checked via Trypan blue staining. […] In panel C, VSMCs were exposed to U0126, a specific MEK1/2 inhibitor, or LY294002, a specific PI3K inhibitor.
(§1) Primary VSMC were isolated from aortic explants of WT, ob/ob, or db/db mice (46). VSMC proliferation was determined using the Cell Titre Aqueous One Solution Proliferation Assay (Promega, Madison, Wis.). Migration to PDGF-BB was assessed in a modified Boyden chamber assay (47).

murine VSMC migration = test: VSMC migration, modified Boyden chamber; format: cell-based, mouse; conditions: leptin 6 nM
Procedure: Migration of VSMCs: Migration was measured using a modified Boyden chamber as previously described (Grinspoon S, et al., J Clin Endocrinol Metab, 1996, 81(11):3861-3). The lower chambers contained PDGF (10 ng/mL), insulin (200 nmol/L), or 0.2% BSA (negative control) in DMEM. 2×10^5 cells were loaded into the top chamber. After 6 h, non-migrating cells were scraped from the upper surface of the filter, and the lower surface of the filter was stained with HEMA 3 Stain Set (Fisher Diagnostics, Middletown, Va.). The number of migrated VSMCs was determined by counting 4 fields at 200× magnification, of constant area per well. Values are expressed as the percentage of cells migrating in response to a chemo-attractant after subtracting the negative control. Experiments were performed thrice in triplicate wells.
FIG. 5 is a graph that depicts inhibition of migration of VSMCs toward insulin by rapamycin. […]
as §1

[2] = mouse, in vivo
From the text: Animal Models and Drug Treatments. Wild type C57BL/6J background mice and mice deficient for leptin (C57BL/6J-Lepob; ob/ob) or the leptin receptor (C57BL/6J-m+/+Lepdb; db/db) were purchased from Charles Jackson Laboratories, Maine. Mice were obtained at ages 6-8 weeks old and average weight 15 g. Animals were fed standard rodent chow and tap water ad libitum. Procedures and animal care were approved by the Institutional Animal Care and Use Committee. Mice were subjected to femoral artery wire injury or sham injury described below 24 hr prior to starting pharmacological treatments. Sirolimus was administered by intraperitoneal injection once per day for 14 days as a suspension in 0.2% sodium carboxymethyl cellulose and 0.25% polysorbate-80; duplicate experiments were accomplished with 0.5% DMSO. […] Plasma leptin levels were measured at baseline, 3, 6, and 10 hr after leptin injection using an ELISA assay (R&D). […]
For leptin measurements, plasma was obtained by drawing 100 μL of retro-orbital whole blood into a heparinized tube and removing cells by centrifugation at 20,000 m/s^2 for 5 min. Plasma leptin levels were measured at baseline, 3, 6, and 10 h after leptin injection in WT mice or at baseline in ob/ob and db/db mice using the mouse leptin TiterZyme EIA kit (Assay Designs, Ann Arbor, Mich.).

**Q.** Which results are given for “Leptin: recombinant leptin; hormone derived from adipose tissue, encoded by the Ob gene”?
**A.** VSMC proliferation ([1]; Example 2, high (4500 mg/L) and normal (1250 mg/L) glucose, various leptin concentrations): potentiated the proliferation of VSMCs in a dose-dependent manner; VSMC proliferation ([1]; co-incubation of leptin 100 ng/ml with insulin 10 nmol/L): ~80%; VSMC proliferation ([1]; leptin receptor-defective (db/db) VSMC, leptin 1, 10, 100 ng/ml): not; VSMC proliferation ([1]; leptin-deficient (ob/ob) VSMC, leptin 1, 10, 100 ng/ml): induced dose-dependent VSMC proliferation; also recorded: can induce VSMC proliferation; also recorded: increased; VSMC proliferation ([1]; wild type C57BL/6J VSMC, leptin 1, 10, 100 ng/ml (0.06, 0.6, 6 nM), 72 h, vs vehicle): increased murine VSMC proliferation in a dose-dependent fashion; VSMC proliferation ([1]; wild type C57BL/6J VSMC, leptin 1, 10, 100 ng/ml (0.06, 0.6, 6 nM), 72 h, vs vehicle, listed as leptin): increased; PDGF-induced migration of VSMC (murine VSMC migration; WT VSMC): enhanced; PDGF-induced migration of VSMC (murine VSMC migration; db/db VSMC): not; leptin level 3 h after injection relative to untreated WT mice [2]: ~20 times; leptin level 3 hr after injection relative to untreated WT mice [2]: 15 times
